# Patent publication US4073908A, “8-Amino-theophylline derivatives and therapeutic applications thereof” (Laboratoire le Brun S.A., priority 1975, dated 1978)
# Legend:
# Acute toxicity in rats = assay type: in vivo; conditions: rat, in vivo, po, single administration
# From the text: (§1) Acute toxicity in mice by the sub-cutaneous and oral routes and in rats by the oral route was investigated by determination of the death rate following a single administration of increasing dosages.
# (§2) Symbol > means that the LD50 is not attained at the dosage indicated.
# Acute toxicity in mice = assay type: in vivo; conditions: mouse, in vivo, single administration
# From the text: as §1, §2
# [1] = test system: aggressiveness subsequent to extended isolation in mice; experiment: Anti-aggressive: aggressiveness subsequent to extended isolation, mice; assay type: in vivo; conditions: Mus musculus, oral, read-out: Oral AD50, isolated mice
# Experimental: (§3) c. aggressiveness subsequent to extended isolation, in mice,
# (§4) In all cases, the AD50 values were determined by the oral route.
# [2] = test system: aggressiveness subsequent to electric shocks in mice; experiment: Anti-aggressive: aggressiveness subsequent to electric shocks, mice; assay type: in vivo; conditions: Mus musculus, oral, read-out: Oral AD50, electric shock in mice
# Experimental: (§5) a. aggressiveness subsequent to electric shocks in mice and rats,
# as §4
# [3] = test system: aggressiveness subsequent to electric shocks in rats; experiment: Anti-aggressive: aggressiveness subsequent to electric shocks, rats; assay type: in vivo; conditions: Rattus norvegicus, oral, read-out: Oral AD50, electric shock in rats
# Experimental: as §5, §4
# [4] = test system: aggressiveness subsequent to apomorphine injection in rats; experiment: Anti-aggressive: aggressiveness subsequent to apomorphine injection, rats; assay type: in vivo; conditions: Rattus norvegicus, oral, apomorphine injection 1 mg/kg, read-out: Oral AD50, apomorphine, in rats
# Experimental: (§6) b. aggressiveness subsequent to apomorphine injection (1 mg/kg, in vivo) in rats,
# as §4
# rats [5] = experiment: Acute toxicity in rats; assay type: in vivo; conditions: single administration
# From the text: as §1, §2
# rotarod test in mice = experiment: Incapacitating effect: rotarod test; assay type: in vivo; conditions: compared with chlordiazepoxide
# From the text: a. Incapacitating effect: rotarod test in mice.
# [6] = test system: narcosis induced by ethanol in mice; experiment: Effect on narcosis induced by ethanol; assay type: in vivo
# From the text: (§7) d. Effect on narcosis induced by pentobarbital and ethanol in mice.
# [7] = test system: stereotypy induced by apomorphine injection in rats; experiment: Effect on stereotypy induced by apomorphine injection; assay type: in vivo
# From the text: e. Effect on stereotypy induced by apomorphine injection in rats.
# learning in rats = experiment: Effect on learning: Shuttle-box test; assay type: in vivo; conditions: compared with chlordiazepoxide
# From the text: f. Effect on learning in rats: Shuttle-box test.
# [8] = test system: reserpine effect on temperature and ptosis; experiment: Anti-reserpine effect on temperature and ptosis; assay type: in vivo; conditions: compared with Imipramine
# From the text: b. Anti-reserpine effect on temperature and ptosis.
# [9] = test system: aggressiveness in mice-killing rats; experiment: Anti-aggressive: aggressiveness in mice-killing rats; assay type: in vivo
# Experimental: (§8) d. aggressiveness in mice-killing rats.
# as §4
# rats [10] = experiment: Oral subacute toxicity in rats; assay type: in vivo; conditions: 1 month old rats, up to a daily dosage of 100 mg/kg
# From the text: Oral subacute toxicity in rats was investigated by determination of the death rate (if any), of the change in the weight of some organs, and by hematologic examinations, and the like.
# Subacute toxicity in 1 month old rats, with compounds Nos. 11 and 18
# [11] = test system: aggressiveness in mice and rats; experiment: Anti-aggressive tests overall; assay type: in vivo; conditions: oral
# Experimental: as §5, §6, §3, §8, §4
# mice = experiment: Acute toxicity in mice; assay type: in vivo; conditions: single administration
# From the text: as §1, §2
# [12] = test system: narcosis induced by pentobarbital in mice; experiment: Effect on narcosis induced by pentobarbital; assay type: in vivo; conditions: compared with chlordiazepoxide
# From the text: as §7
# catalepsy and ptosis = experiment: Neuroleptic effects: catalepsy and ptosis; conditions: in vivo
# [13] = test system: cardiazol convulsions in mice; experiment: Anti-convulsant effect with respect to cardiazol; assay type: in vivo; conditions: compared with chlordiazepoxide
# From the text: c. Anti-convulsant effect with respect to cardiazol in mice.
# [14] = test system: carrage enin-induced edema in rats; experiment: Anti-inflammatory: carrageenin-induced edema in rats; assay type: in vivo; conditions: oral route
# Experimental: The technique used was that of the carrage enin-induced edema in rats (oral route). The dosage which inhibits this edema by a factor of 50% was evaluated by interpolation.
# [15] = test system: bronchospasm induced by histamine injection in guinea-pigs; experiment: Anti-histaminic: bronchospasm induced by histamine injection in guinea-pigs; assay type: in vivo; conditions: Cavia porcellus, oral, read-out: oral AD50, anti-histaminic activity
# Experimental: This activity was determined according to the technique of the bronchospasm induced by histamine injection in guinea-pigs.
# [16] = test system: cough induced by electric stimulation of the laryngeal nerve in cats; experiment: Anti-tussive: cough induced by electric stimulation of the laryngeal nerve; assay type: in vivo
# From the text: 6. Anti-tussive activity against cough induced by electric stimulation of the laryngeal nerve in cats.
# [17] = po, read-out: LD50, oral route, mice
# [18] = sc, read-out: LD50, s.c. route, mice
SMILES,LD50 (Acute toxicity in rats) [mg/kg],LD50 (Acute toxicity in mice; [17]) [mg/kg],LD50 (Acute toxicity in mice; [18]) [mg/kg],also measured
Cc1cccc(N2CCN(CCN3CCn4c3nc3c4c(=O)n(C)c(=O)n3C)CC2)c1 [Compound 1],> 100,> 300,> 300,
Cc1ccc(N2CCN(CCN3CCn4c3nc3c4c(=O)n(C)c(=O)n3C)CC2)cc1C [Compound 2],> 100,> 300,> 300,
COc1cccc(N2CCN(CCN3CCn4c3nc3c4c(=O)n(C)c(=O)n3C)CC2)c1 [Compound 3],> 100,> 300,> 300,ED50 [1]: 25 mg/kg; ED50 [2]: 30 mg/kg; ED50 [3]: 100 mg/kg; ED50 [4]: 180 mg/kg
COc1ccc(N2CCN(CCN3CCn4c3nc3c4c(=O)n(C)c(=O)n3C)CC2)cc1 [Compound 4],> 100,> 300,> 300,
Cn1c(=O)c2c(nc3n2CCN3CCN2CCN(c3cccc(C(F)(F)F)c3)CC2)n(C)c1=O [Compound 5],> 100,> 300,> 300,
Cn1c(=O)c2c(nc3n2CCN3CCN2CCN(c3cccc(F)c3)CC2)n(C)c1=O [Compound 6],> 100,> 300,> 300,
Cn1c(=O)c2c(nc3n2CCN3CCN2CCN(c3ccc(F)cc3)CC2)n(C)c1=O [Compound 7],> 100,> 300,> 300,
Cn1c(=O)c2c(nc3n2CCN3CCN2CCN(c3cccc(Br)c3)CC2)n(C)c1=O [Compound 8],> 100,> 300,> 300,
Cn1c(=O)c2c(nc3n2CCN3CCN2CCN(c3cccc(I)c3)CC2)n(C)c1=O [Compound 9],> 100,> 300,> 300,
Cn1c(=O)c2c(nc3n2CCN3CCN2CCN(c3ccccc3Cl)CC2)n(C)c1=O [Compound 10],> 100,> 300,> 300,
Cn1c(=O)c2c(nc3n2CCN3CCN2CCN(c3cccc(Cl)c3)CC2)n(C)c1=O [Compound 11],,,> 300,"LD50, oral route, rats (rats [5]): 1000 mg/kg; ED50 [1]: 10 mg/kg; incapacitating effect (rotarod test in mice): does not, as the latter compound, exhibit incapacitating; ethanol-induced narcosis-potentiating effect [6]: does not, as the latter compound, exhibit incapacitating, anti-convulsant, pentobarbitalor ethanol-induced narcosis-potentiating; apomorphinic anti-stereotypy [7]: absence of apomorphinic anti-stereotypy; learning-delaying effect (learning in rats): does not, as the latter compound, exhibit incapacitating, anti-convulsant, pentobarbitalor ethanol-induced narcosis-potentiating, or learning-delaying effects; anti-reserpinic effect [8]: absence of anti-reserpinic effect; ED50 [2]: 30 mg/kg; ED50 ([9]; Rattus norvegicus, oral, read-out: Oral AD50, mice-killing rats): 50 mg/kg; activity in the mice-killing test in rats relative to Imipramine ([9]; compared with Imipramine): Superior to Imipramine in the mice-killing test in rats; ED50 [3]: 45 mg/kg; death rate (fatal issue) (rats [10]): No fatal issue was noted; anti-aggressive activity (in words) [11]: in most cases, are superior to those of chlordiazepoxide in the anti-aggressive tests; ED50 [4]: 140 mg/kg; LD50, oral route, mice (mice): 450 mg/kg; pentobarbital-induced narcosis-potentiating effect [12]: does not, as the latter compound, exhibit incapacitating, anti-convulsant, pentobarbitalor ethanol-induced narcosis-potentiating; catalepsy (catalepsy and ptosis): absence of apomorphinic anti-stereotypy, of catalepsy; ptosis (catalepsy and ptosis): absence of apomorphinic anti-stereotypy, of catalepsy and of ptosis; anti-convulsant effect [13]: does not, as the latter compound, exhibit incapacitating, anti-convulsant"
Cn1c(=O)c2c(nc3n2CCN3CCN2CCN(c3ccc(Cl)cc3)CC2)n(C)c1=O [Compound 12],> 100,120,> 300,"anti-inflammatory activity (in words) [14]: the more active, the activities being substantially equivalent to those of phenyl butazone; ED50 [15]: 1.5 mg/kg; anti-tussive activity (in words) [16]: most active compound investigated"
Cn1c(=O)c2c(nc3n2CCN3CCN2CCN(c3cccc(Cl)c3Cl)CC2)n(C)c1=O [Compound 13],> 100,> 300,> 300,
Cn1c(=O)c2c(nc3n2CCN3CCN2CCN(c3ccc(Cl)c(Cl)c3)CC2)n(C)c1=O [Compound 14],> 100,> 300,> 300,
Cn1c(=O)c2c(nc3n2CCN3CCN2CCN(c3cc(Cl)cc(Cl)c3)CC2)n(C)c1=O [Compound 15],> 100,> 300,> 300,
CC(CN1CCn2c1nc1c2c(=O)n(C)c(=O)n1C)N1CCN(c2cccc(Cl)c2)CC1 (stereo not shown) [Compound 16],> 100,> 300,> 300,
Cn1c(=O)c2c(nc3n2CCN3CCCN2CCN(c3cccc(Cl)c3)CC2)n(C)c1=O [Compound 17],> 100,> 300,> 300,
CC(CN1CCCn2c1nc1c2c(=O)n(C)c(=O)n1C)N1CCN(c2cccc(Cl)c2)CC1 (stereo not shown) [Compound 19],> 100,> 300,> 300,
Cn1c(=O)c2c(nc3n2CCCN3CCCN2CCN(c3cccc(Cl)c3)CC2)n(C)c1=O [Compound 20],> 100,> 300,> 300,"anti-inflammatory activity (in words) [14]: the more active, the activities being substantially equivalent to those of phenyl butazone"
CC1CN(CCN2CCn3c2nc2c3c(=O)n(C)c(=O)n2C)CCN1c1cccc(Cl)c1 (stereo not shown) [Compound 21],> 100,> 300,> 300,
CC1CN(CCN2CCn3c2nc2c3c(=O)n(C)c(=O)n2C)CCN1c1ccc(Cl)cc1 (stereo not shown) [Compound 22],> 100,> 300,> 300,
CCC1CN(CCN2CCn3c2nc2c3c(=O)n(C)c(=O)n2C)CCN1c1cccc(Cl)c1 (stereo not shown) [Compound 24],> 100,300,> 300,
Cn1c(=O)c2c(nc3n2CCN3CCN2CCN(c3cccc(Cl)c3)C(COc3ccccc3)C2)n(C)c1=O (stereo not shown) [Compound 25],> 100,> 300,> 300,
Cn1c(=O)c2c(nc3n2CCCCN3CCN2CCN(c3cccc(Cl)c3)CC2)n(C)c1=O [Compound 26],> 100,> 300,> 300,
Cn1c(=O)c2c(nc3n2CCCCN3CCCN2CCN(c3cccc(Cl)c3)CC2)n(C)c1=O [Compound 27],> 100,> 300,> 300,
Cn1c(=O)c2c(nc3n2CCCN3CCCN2CCN(c3ccc(Cl)cc3)CC2)n(C)c1=O [Compound 28],> 100,> 300,> 300,
Cn1c(=O)c2c(nc3n2CCN3CCCCCCN2CCN(c3cccc(Cl)c3)CC2)n(C)c1=O [Compound 29],> 100,> 300,> 300,
Cn1c(=O)c2c(nc3n2CCCN3CCCCCCN2CCN(c3cccc(Cl)c3)CC2)n(C)c1=O [Compound 30],> 100,> 300,> 300,
Cn1c(=O)c2c(nc3n2CCN3CCN2CCN(c3cccc(Cl)c3)CC2)n(C)c1=O [Compound 31],,,,"LD50, oral route, rats (rats [5]): > 100 mg/kg; LD50, oral route, mice (mice): 150 mg/kg; LD50, s.c. route, mice (mice; s.c. route): > 300 mg/kg"
